Laboratory results taken from the NIST ThermoML archive (doi:10.1021/je501041r).

Experiment: xn = mol fraction of the nth substance listed
Conditions: 101 kPa, Liquid; for viscosity: Capillary tube (Ostwald / Ubbelohde) method; for mass density: Vibrating tube method

CC(C)CC(C)(C)C [2,2,4-trimethylpentane] + CCCO
Conditions | mass density [kg/m3] | viscosity [mPa·s]
298.15 K, x1 = 0.02 | 795.39 | –
298.15 K, x1 = 0.04 | 790.82 | –
298.15 K, x1 = 0.06 | 786.22 | –
298.15 K, x1 = 0.1 | 777.82 | 1.518
298.15 K, x1 = 0.2 | 759.71 | 1.231
298.15 K, x1 = 0.3 | 744.88 | 1.007
298.15 K, x1 = 0.4 | 732.42 | 0.84
298.15 K, x1 = 0.4999 | 721.93 | 0.718
298.15 K, x1 = 0.5996 | 712.88 | 0.644
298.15 K, x1 = 0.6998 | 704.9 | 0.572
298.15 K, x1 = 0.7995 | 698.16 | 0.519
298.15 K, x1 = 0.9 | 692.36 | 0.491
298.15 K, x1 = 1 | 687.82 | 0.478
303.15 K, x1 = 0.02 | 791.36 | –
303.15 K, x1 = 0.04 | 786.77 | –
303.15 K, x1 = 0.06 | 782.15 | –
303.15 K, x1 = 0.1 | 773.72 | 1.361
303.15 K, x1 = 0.2 | 755.54 | 1.113
303.15 K, x1 = 0.3 | 740.67 | 0.909
303.15 K, x1 = 0.4 | 728.17 | 0.769
303.15 K, x1 = 0.4999 | 717.66 | 0.664
303.15 K, x1 = 0.5996 | 708.61 | 0.585
303.15 K, x1 = 0.6998 | 700.62 | 0.531
303.15 K, x1 = 0.7995 | 693.9 | 0.488
303.15 K, x1 = 0.9 | 688.13 | 0.464
303.15 K, x1 = 1 | 683.68 | 0.453
308.15 K, x1 = 0.02 | 787.26 | –
308.15 K, x1 = 0.04 | 782.66 | –
308.15 K, x1 = 0.06 | 778.03 | –
308.15 K, x1 = 0.1 | 769.57 | 1.223
308.15 K, x1 = 0.2 | 751.33 | 1.004
308.15 K, x1 = 0.3 | 736.41 | 0.831
308.15 K, x1 = 0.4 | 723.88 | 0.709
308.15 K, x1 = 0.4999 | 713.35 | 0.613
308.15 K, x1 = 0.5996 | 704.28 | 0.543
308.15 K, x1 = 0.6998 | 696.31 | 0.5
308.15 K, x1 = 0.7995 | 689.61 | 0.46
308.15 K, x1 = 0.9 | 683.86 | 0.438
308.15 K, x1 = 1 | 679.52 | 0.429
313.15 K, x1 = 0.02 | 783.12 | –
313.15 K, x1 = 0.04 | 778.51 | –
313.15 K, x1 = 0.06 | 773.86 | –
313.15 K, x1 = 0.1 | 765.38 | 1.1
313.15 K, x1 = 0.2 | 747.08 | 0.92
313.15 K, x1 = 0.3 | 732.1 | 0.758
313.15 K, x1 = 0.4 | 719.54 | 0.648
313.15 K, x1 = 0.4999 | 708.99 | 0.569
313.15 K, x1 = 0.5996 | 699.91 | 0.51
313.15 K, x1 = 0.6998 | 691.95 | 0.467
313.15 K, x1 = 0.7995 | 685.26 | 0.434
313.15 K, x1 = 0.9 | 679.55 | 0.414
313.15 K, x1 = 1 | 675.32 | 0.408
318.15 K, x1 = 0.02 | 778.94 | –
318.15 K, x1 = 0.04 | 774.31 | –
318.15 K, x1 = 0.06 | 769.64 | –
318.15 K, x1 = 0.1 | 761.14 | 0.994
318.15 K, x1 = 0.2 | 742.76 | 0.833
318.15 K, x1 = 0.3 | 727.73 | 0.693
318.15 K, x1 = 0.4 | 715.13 | 0.596
318.15 K, x1 = 0.4999 | 704.58 | 0.529
318.15 K, x1 = 0.5996 | 695.48 | 0.479
318.15 K, x1 = 0.6998 | 687.53 | 0.439
318.15 K, x1 = 0.7995 | 680.87 | 0.41
318.15 K, x1 = 0.9 | 675.2 | 0.393
318.15 K, x1 = 1 | 671.1 | 0.388
323.15 K, x1 = 0.02 | 774.7 | –
323.15 K, x1 = 0.04 | 770.05 | –
323.15 K, x1 = 0.06 | 765.36 | –
323.15 K, x1 = 0.1 | 756.84 | 0.903
323.15 K, x1 = 0.2 | 738.39 | 0.767
323.15 K, x1 = 0.3 | 723.3 | 0.648
323.15 K, x1 = 0.4 | 710.67 | 0.554
323.15 K, x1 = 0.4999 | 700.11 | 0.491
323.15 K, x1 = 0.5996 | 691 | 0.445
323.15 K, x1 = 0.6998 | 683.07 | 0.413
323.15 K, x1 = 0.7995 | 676.44 | 0.388
323.15 K, x1 = 0.9 | 670.81 | 0.373
323.15 K, x1 = 1 | 666.85 | 0.369
